Experimental data: ChEMBL document CHEMBL1143942, “Deoxygenated phosphorothioate inositol phosphate analogs: synthesis, phosphatase stability, and binding affinity” (Bioorg Med Chem, 2008)
pKd: −log10 of the molar value. The source made the active and inactive calls. No cut-off for these calls is given here.

Legend:
[1] = Chemical stability in presence of alkaline phosphatase; assay type: physicochemical
[2] = Displacement of [3H]Ins(1,4,5)P3 from Ins(1,4,5)P3 receptor in bovine adrenal cortex; assay type: tissue-based, Bos taurus
[3] = Inhibition of alkaline phosphatase

Row | pKd [1] | SMILES | pKd [2] | Activity [3] | Stability ([1]; isolated protein)
1 | 7.27 | O=P(O)(O)O[C@@H]1[C@H](O)[C@H](O)[C@@H](OP(=O)(O)O)[C@H](OP(=O)(O)O)[C@H]1O [INS(1,4,5)P3] |  |  | 
2 |  | O[C@@H]1[C@@H](OP(O)(O)=S)[C@H](OP(O)(O)=S)CC[C@H]1OP(O)(O)=S | 6.09 | inactive | Stable
